In the test the test system is M. catarrhalis A894. In words: MIC determination by microdilution in cation-adjusted Mueller-Hinton Broth (NCCLS). The format is cell-based. The conditions noted are these: Moraxella catarrhalis, pH 7.2-7.3. How it is done: These assays have been performed following the description given in “Methods for dilution Antimicrobial Susceptibility Tests for Bacteria that Grow Aerobically, 4th ed.; Approved standard: NCCLS Document M7-A4; National Committee for Clinical Laboratory Standards: Villanova, Pa., USA, 1997”. Minimal inhibitory concentrations (MICs; mg/l) were determined in cation-adjusted Mueller-Hinton Broth (BBL) by a microdilution method following NCCLS guidelines (National Committee for Clinical Laboratory Standards. Methods for Dilution Antimicrobial Susceptibility). The pH of the test medium was 7.2-7.3. All Example compounds were tested against several Gram-positive and Gram-negative bacteria.

≈ marks a conversion by molar mass, not a printed value. Where only a bound is given, the exact number is not on record here.

In general, MIC refers to the lowest concentration that inhibits growth of the organism. Consider `COc1ccc2nccc(NC3CCN(C[C@@H]4CN(c5ccc6c(c5)NC(=O)CS6)C(=O)O4)CC3)c2n1` [Example 40, 6-{(R)-5-[4-(6-methoxy-[1,5]naphthyridin-4-ylamino)-piperidin-1-ylmethyl]-2-oxo-oxazolidin-3-yl}-4H-benzo[1,4]thiazin-3-one], for which the MIC was no more than 0.031 µg/mL.
For `COc1cnc2cccc(CNC3CN(C[C@@H]4CN(c5ccc6c(c5)NC(=O)CO6)C(=O)O4)C3)c2n1` [Example 34, 6-((R)-5-{3-[(3-methoxy-quinoxalin-5-ylmethyl)-amino]-azetidin-1-ylmethyl}-2-oxo-oxazolidin-3-yl)-4H-benzo[1,4]oxazin-3-one] the value was 0.063 µg/mL (≈ 0.128 µM).
`O=C1COc2ccc(N3C[C@@H](CN4CC(Nc5ccnc6ccc(F)cc56)C4)OC3=O)cc2N1` [Example 43, 6-{(R)-5-[3-(6-fluoro-quinolin-4-ylamino)-azetidin-1-ylmethyl]-2-oxo-oxazolidin-3-yl}-4H-benzo[1,4]oxazin-3-one] had an MIC of 0.25 µg/mL (≈ 0.539 µM).
`COc1cnc2cccc(C(O)C3(O)CCN(C[C@@H]4CN(c5ccc6c(c5)NC(=O)CS6)C(=O)O4)CC3)c2n1` (mixture of isomers) [Example 13, 6-((R)-5-{4-hydroxy-4-[(RS)-hydroxy-(3-methoxy-quinoxalin-5-yl)-methyl]-piperidin-1-ylmethyl}-2-oxo-oxazolidin-3-yl)-4H-benzo[1,4]thiazin-3-one] had an MIC of 0.5 µg/mL.
Compound `COc1ccc2nccc(NC(=O)C3CN(C[C@@H]4CN(c5ccc6c(c5)NC(=O)CS6)C(=O)O4)C3)c2n1` [Example 7, 1-[(R)-2-oxo-3-(3-oxo-3,4-dihydro-2H-benzo[1,4]thiazin-6-yl)-oxazolidin-5-ylmethyl]-azetidine-3-carboxylic acid (6-methoxy-[1,5]naphthyridin-4-yl)-amide] returned an MIC of no more than 0.031 µg/mL.
`COc1ccc2ncnc(OC3CCN(C[C@@H]4CN(c5cc6c(nn5)OCCO6)C(=O)O4)C3)c2c1` (mixture of isomers) [Example 33, (R)-3-(6,7-dihydro-[1,4]dioxino[2,3-c]pyridazin-3-yl)-5-[(RS)-3-(6-methoxy-quinazolin-4-yloxy)-pyrrolidin-1-ylmethyl]-oxazolidin-2-one]: inhibition of growth (MIC) required 0.25 µg/mL.
Turning to `COc1ccc2ncnc(O[C@@H]3CN(C[C@@H]4CN(c5ccc6c(c5)NC(=O)CS6)C(=O)O4)C[C@H]3N)c2c1` (relative stereo) [Example 18, 6-{(R)-5-[(3R*,4R*)-3-amino-4-(6-methoxy-quinazolin-4-yloxy)-pyrrolidin-1-ylmethyl]-2-oxo-oxazolidin-3-yl}-4H-benzo[1,4]thiazin-3-one], the minimal inhibitory concentration (MIC) is no more than 0.031 µg/mL.
`COc1ccc2ncc(F)c(CNC3CN(C[C@@H]4CN(c5ccc6c(c5)NC(=O)CO6)C(=O)O4)C3)c2c1` [Example 28, 6-((R)-5-{3-[(3-fluoro-6-methoxy-quinolin-4-ylmethyl)-amino]-azetidin-1-ylmethyl}-2-oxo-oxazolidin-3-yl)-4H-benzo[1,4]oxazin-3-one] showed an MIC of no more than 0.031 µg/mL.
On to `COc1ccc2nccc(CCC3CCN(C[C@@H]4CN(c5ccc6c(c5)NC(=O)CS6)C(=O)O4)C3)c2n1` (mixture of isomers) [Example 10, 6-((R)-5-{(RS)-3-[2-(6-methoxy-[1,5]naphthyridin-4-yl)-ethyl]-pyrrolidin-1-ylmethyl}-2-oxo-oxazolidin-3-yl)-4H-benzo[1,4]thiazin-3-one], for which the MIC is no more than 0.031 µg/mL.
Consider `COc1ccc2ncnc(O[C@H]3CN(C[C@@H]4CN(c5ccc6c(c5)NC(=O)CS6)C(=O)O4)C[C@H]3O)c2c1` (relative stereo) [Example 21, 6-{(R)-5-[(3R*,4S*)-3-hydroxy-4-(6-methoxy-quinazolin-4-yloxy)-pyrrolidin-1-ylmethyl]-2-oxo-oxazolidin-3-yl}-4H-benzo[1,4]thiazin-3-one], for which the MIC is no more than 0.031 µg/mL.
For the compound `COc1ccc2ncnc(OC3CCN(C[C@@H]4CN(c5ccc6c(c5)NC(=O)CO6)C(=O)O4)CC3)c2c1` [Example 31, 6-{(R)-5-[4-(6-methoxy-quinazolin-4-yloxy)-piperidin-1-ylmethyl]-2-oxo-oxazolidin-3-yl}-4H-benzo[1,4]oxazin-3-one], the MIC was no more than 0.031 µg/mL.
`COc1ccc2nccc(CNC3CN(C[C@@H]4CN(c5ccc6c(c5)NC(=O)CO6)C(=O)O4)C3)c2n1` [Example 27, 6-((R)-5-{3-[(6-methoxy-[1,5]naphthyridin-4-ylmethyl)-amino]-azetidin-1-ylmethyl}-2-oxo-oxazolidin-3-yl)-4H-benzo[1,4]oxazin-3-one] had an MIC of no more than 0.031 µg/mL.
Take `COc1ccc2nccc(OC3CN(C[C@@H]4CN(c5ccc6c(c5)NC(=O)CS6)C(=O)O4)C3)c2n1` [Example 1, 6-{(R)-5-[3-(6-methoxy-[1,5]naphthyridin-4-yloxy)-azetidin-1-ylmethyl]-2-oxo-oxazolidin-3-yl}-4H-benzo[1,4]thiazin-3-one]: the MIC is no more than 0.031 µg/mL.

These data come from patent publication US9505750B2, “5-aminocyclylmethyl-oxazolidin-2-one derivatives” (priority 2007, dated 2016).
